Assay results taken from ChEMBL document CHEMBL1909046, “DrugMatrix in vitro pharmacology data”.

How the values were obtained:
[1] = target: T1, Angiotensin-converting enzyme (Oryctolagus cuniculus, UniProt P12822); type: tissue-based, Lung;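 note: enzymatic inhibition of angiotensin-converting enzyme measured with FAPGG as the substrate; in other assays of this panel Not Active means under 50% inhibition at 10 µM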
T1 sequence (P12822 whole entry): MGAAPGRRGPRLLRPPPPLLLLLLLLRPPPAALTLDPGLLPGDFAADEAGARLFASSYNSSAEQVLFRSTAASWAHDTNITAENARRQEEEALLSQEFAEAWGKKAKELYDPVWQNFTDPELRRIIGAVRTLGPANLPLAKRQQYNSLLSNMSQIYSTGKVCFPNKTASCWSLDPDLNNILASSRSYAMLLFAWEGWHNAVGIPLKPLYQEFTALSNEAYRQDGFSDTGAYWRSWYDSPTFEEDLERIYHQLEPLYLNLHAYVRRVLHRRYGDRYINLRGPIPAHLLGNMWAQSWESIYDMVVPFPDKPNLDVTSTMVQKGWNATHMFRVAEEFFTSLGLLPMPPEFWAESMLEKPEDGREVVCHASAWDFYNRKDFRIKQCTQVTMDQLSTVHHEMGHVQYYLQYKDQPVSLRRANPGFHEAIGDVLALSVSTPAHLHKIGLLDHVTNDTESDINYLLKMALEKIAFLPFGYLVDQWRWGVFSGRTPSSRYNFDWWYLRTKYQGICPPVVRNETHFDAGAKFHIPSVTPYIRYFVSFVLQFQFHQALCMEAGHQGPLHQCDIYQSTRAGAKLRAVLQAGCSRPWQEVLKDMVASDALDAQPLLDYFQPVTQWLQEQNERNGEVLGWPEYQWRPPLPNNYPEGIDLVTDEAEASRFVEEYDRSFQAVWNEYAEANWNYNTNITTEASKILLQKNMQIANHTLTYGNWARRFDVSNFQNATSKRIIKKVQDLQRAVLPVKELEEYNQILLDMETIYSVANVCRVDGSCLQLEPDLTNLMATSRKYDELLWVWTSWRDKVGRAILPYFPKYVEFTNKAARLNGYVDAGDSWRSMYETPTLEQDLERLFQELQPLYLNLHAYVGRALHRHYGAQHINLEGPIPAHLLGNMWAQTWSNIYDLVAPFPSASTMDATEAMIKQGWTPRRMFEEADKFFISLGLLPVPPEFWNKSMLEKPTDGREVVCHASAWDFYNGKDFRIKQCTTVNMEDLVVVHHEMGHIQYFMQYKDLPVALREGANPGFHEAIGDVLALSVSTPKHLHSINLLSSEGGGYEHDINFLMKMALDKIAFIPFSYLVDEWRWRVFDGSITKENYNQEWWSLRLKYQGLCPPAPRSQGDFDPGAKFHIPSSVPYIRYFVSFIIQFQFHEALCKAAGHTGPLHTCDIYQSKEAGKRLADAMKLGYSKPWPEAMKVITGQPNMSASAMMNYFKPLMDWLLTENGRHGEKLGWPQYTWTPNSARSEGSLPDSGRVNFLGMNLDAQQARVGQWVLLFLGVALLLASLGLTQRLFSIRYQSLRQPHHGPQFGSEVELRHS

[2] = target: Matrix metalloproteinase-9 (Homo sapiens, UniProt P14780); type: cell-based;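 note: inhibition of isolated MMP-9 enzyme activity toward a synthetic peptide substrate, from the DrugMatrix protease screening panel; in other assays of this panel Not Active means under 50% inhibition at 10 µM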
Matrix metalloproteinase-9, sequence (P14780 whole entry): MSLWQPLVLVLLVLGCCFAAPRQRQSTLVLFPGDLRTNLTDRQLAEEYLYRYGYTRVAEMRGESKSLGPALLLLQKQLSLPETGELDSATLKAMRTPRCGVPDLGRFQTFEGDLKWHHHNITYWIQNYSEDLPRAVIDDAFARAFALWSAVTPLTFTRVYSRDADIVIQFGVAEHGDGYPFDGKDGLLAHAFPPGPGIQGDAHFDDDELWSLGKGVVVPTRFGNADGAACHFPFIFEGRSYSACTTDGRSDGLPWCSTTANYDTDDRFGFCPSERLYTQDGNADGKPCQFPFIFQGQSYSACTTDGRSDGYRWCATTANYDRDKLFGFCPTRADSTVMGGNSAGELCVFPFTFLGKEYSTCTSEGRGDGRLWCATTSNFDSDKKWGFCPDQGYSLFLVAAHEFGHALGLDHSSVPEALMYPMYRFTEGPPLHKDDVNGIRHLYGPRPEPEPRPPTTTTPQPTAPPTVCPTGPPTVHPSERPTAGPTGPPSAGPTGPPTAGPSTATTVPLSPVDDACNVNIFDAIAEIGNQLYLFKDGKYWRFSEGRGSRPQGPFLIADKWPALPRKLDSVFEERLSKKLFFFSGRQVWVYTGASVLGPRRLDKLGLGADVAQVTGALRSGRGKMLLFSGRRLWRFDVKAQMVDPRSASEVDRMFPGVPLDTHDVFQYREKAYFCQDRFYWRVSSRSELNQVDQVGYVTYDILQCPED

Adenosine receptor A3 = target: T2, Adenosine receptor A3 (Homo sapiens, UniProt P0DMS8); type: cell membranes, CHO-K1, Membrane; conditions: for Ki: read-out: Ki;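 for all read-outs here: radioligand binding assay with AB-MECA serving as the labeled ligand; in other assays of this panel Not Active means under 50% inhibition at 10 µM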
T2 sequence (P0DMS8 whole entry): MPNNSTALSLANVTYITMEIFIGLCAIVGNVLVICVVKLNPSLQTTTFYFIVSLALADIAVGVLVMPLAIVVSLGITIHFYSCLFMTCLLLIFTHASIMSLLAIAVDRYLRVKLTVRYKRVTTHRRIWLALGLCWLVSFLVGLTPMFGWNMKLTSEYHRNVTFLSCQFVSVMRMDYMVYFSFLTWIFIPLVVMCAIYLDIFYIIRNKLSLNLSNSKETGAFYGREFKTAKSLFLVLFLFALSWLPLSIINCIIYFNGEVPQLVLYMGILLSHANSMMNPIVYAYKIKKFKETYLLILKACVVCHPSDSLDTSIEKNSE

[3] = target: T3, 5-hydroxytryptamine receptor 2C (Homo sapiens, UniProt P28335); experiment: DRUGMATRIX: Serotonin (5-Hydroxytryptamine) 5-HT2C radioligand binding (ligand: [3H] Mesulergine); type: cell membranes, CHO-K1, Membrane; conditions: Not Active = under 50% inhibition at 10 µM; for Ki: read-out: Ki
T3 sequence (P28335 whole entry): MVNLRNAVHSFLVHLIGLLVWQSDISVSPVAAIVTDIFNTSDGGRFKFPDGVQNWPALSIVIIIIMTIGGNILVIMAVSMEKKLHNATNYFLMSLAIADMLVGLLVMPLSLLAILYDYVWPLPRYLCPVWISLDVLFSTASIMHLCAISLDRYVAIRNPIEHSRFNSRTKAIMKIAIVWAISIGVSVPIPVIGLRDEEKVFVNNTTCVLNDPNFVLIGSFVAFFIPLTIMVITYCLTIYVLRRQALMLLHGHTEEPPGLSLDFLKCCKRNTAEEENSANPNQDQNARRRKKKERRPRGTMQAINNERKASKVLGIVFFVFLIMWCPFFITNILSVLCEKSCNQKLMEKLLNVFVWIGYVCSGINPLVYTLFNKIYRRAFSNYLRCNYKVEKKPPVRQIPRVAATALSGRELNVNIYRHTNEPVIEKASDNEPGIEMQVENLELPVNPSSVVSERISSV

D(1A) dopamine receptor = D(1A) dopamine receptor (Homo sapiens, UniProt P21728); experiment: DRUGMATRIX: Dopamine D1 radioligand binding (ligand: [3H] SCH-23390); type: cell membranes, CHO, Membrane; conditions: Not Active = under 50% inhibition at 10 µM
D(1A) dopamine receptor, sequence (P21728 whole entry): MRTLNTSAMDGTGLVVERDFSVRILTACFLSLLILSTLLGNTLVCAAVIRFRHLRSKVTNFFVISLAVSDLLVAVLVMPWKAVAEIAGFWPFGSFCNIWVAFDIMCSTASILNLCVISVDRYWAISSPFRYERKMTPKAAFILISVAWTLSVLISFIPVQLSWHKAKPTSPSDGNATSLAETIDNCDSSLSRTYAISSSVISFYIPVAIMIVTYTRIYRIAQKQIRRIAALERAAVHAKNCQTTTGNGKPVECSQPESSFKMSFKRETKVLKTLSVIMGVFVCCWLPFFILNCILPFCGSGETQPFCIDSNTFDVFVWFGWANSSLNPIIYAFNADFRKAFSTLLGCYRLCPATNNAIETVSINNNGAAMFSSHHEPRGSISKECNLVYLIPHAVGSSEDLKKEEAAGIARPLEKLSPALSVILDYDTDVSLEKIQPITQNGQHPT

[4] = DRUGMATRIX: Calcium Channel Type L, Dihydropyridine radioligand binding (ligand: [3H] Nitrendipine); type: cell membranes, Rattus norvegicus, Wistar, Cerebral cortex, Membrane; conditions: Not Active = under 50% inhibition at 10 µM

SMILES | IC50 [1] | IC50 [2] | IC50 (Adenosine receptor A3; read-out: IC50) | Ki (Adenosine receptor A3) | IC50 ([3]; cho-k1) | IC50 (D(1A) dopamine receptor; cho) | IC50 [4] | Ki [4] | IC50 (Adenosine receptor A3; cho-k1) | IC50 ([4]; read-out: IC50) | Ki ([4]; read-out: Ki) | IC50 ([3]; read-out: IC50) | Ki [3] | IC50 (D(1A) dopamine receptor; read-out: IC50) | Ki (D(1A) dopamine receptor; read-out: Ki)
CCOc1nc2cccc(C(=O)O)c2n1Cc1ccc(-c2ccccc2-c2nnn[nH]2)cc1 | Not Active | Not Active | 1220 nM | 690 nM | Not Active | Not Active | Not Active | Not Active | – | – | – | – | – | – | –
O=C(O)CCCc1cccs1 | Not Active | Not Active | – | – | Not Active | Not Active | Not Active | Not Active | Not Active | – | – | – | – | – | –
COc1ccccc1N | Not Active | Not Active | – | – | Not Active | Not Active | Not Active | Not Active | Not Active | – | – | – | – | – | –
O=C(c1ccccc1F)N1CCC(Cc2ccccc2)CC1 | Not Active | Not Active | – | – | Not Active | Not Active | Not Active | Not Active | Not Active | – | – | – | – | – | –
Cc1c(O)cccc1C(=O)N[C@@H](CSc1ccccc1)[C@H](O)CN1C[C@H]2CCCC[C@H]2C[C@H]1C(=O)NC(C)(C)C | Not Active | Not Active | 14800 nM | 8360 nM | Not Active | – | – | – | – | 9840 nM | 6320 nM | – | – | – | –
CC(O)COC[C@H]1O[C@@H]2O[C@H]3[C@H](O)[C@@H](O)[C@@H](O[C@H]4[C@H](O)[C@@H](O)[C@@H](O[C@H]5[C@H](O)[C@@H](O)[C@@H](O[C@H]6[C@H](O)[C@@H](O)[C@@H](O[C@H]7[C@H](O)[C@@H](O)[C@@H](O[C@H]8[C@H](O)[C@@H](O)[C@@H](O[C@H]1[C@H](O)[C@H]2O)O[C@@H]8COCC(C)O)O[C@@H]7COCC(C)O)O[C@@H]6COCC(C)O)O[C@@H]5COCC(C)O)O[C@@H]4COCC(C)O)O[C@@H]3COCC(C)O (stereo partly drawn) [2-HYDROXYPROPYL-BETA-CYCLODEXTRIN] | Not Active | Not Active | – | – | – | Not Active | Not Active | Not Active | Not Active | – | – | 1590 nM | 833 nM | – | –
NC(=O)c1cccc(N)c1 [3-AMINOBENZAMIDE] | Not Active | Not Active | – | – | Not Active | Not Active | Not Active | Not Active | Not Active | – | – | – | – | – | –
C[C@H]1O[C@H](O[C@H]2[C@H](O)[C@@H](O)[C@@H](O[C@H]3[C@H](O)[C@@H](O)C(O)O[C@@H]3CO)O[C@@H]2CO)[C@H](O)[C@@H](O)[C@@H]1N[C@H]1C=C(CO)[C@@H](O)[C@H](O)[C@H]1O (stereo partly drawn) [ACARBOSE] | Not Active | Not Active | – | – | Not Active | Not Active | Not Active | Not Active | Not Active | – | – | – | – | – | –
CC[C@H]1[C@@H]2C[C@H]3[C@@H]4N(C)c5ccccc5[C@]45C[C@@H]([C@@H]2[C@H]5O)N3[C@@H]1O [AJMALINE] | Not Active | Not Active | – | – | Not Active | Not Active | Not Active | Not Active | Not Active | – | – | – | – | – | –
NC12CC3CC(CC(C3)C1)C2 [AMANTADINE] | Not Active | Not Active | – | – | Not Active | Not Active | Not Active | Not Active | Not Active | – | – | – | – | – | –
NCCCNCCSP(=O)(O)O [AMIFOSTINE] | Not Active | Not Active | – | – | Not Active | Not Active | Not Active | Not Active | Not Active | – | – | – | – | – | –
CN(C)CCC=C1c2ccccc2CCc2ccccc21 [AMITRIPTYLINE] | Not Active | Not Active | – | – | – | – | Not Active | Not Active | Not Active | – | – | 6.05 nM | 3.17 nM | 355 nM | 178 nM
CC(=O)Oc1ccccc1C(=O)O [ASPIRIN] | Not Active | Not Active | – | – | Not Active | Not Active | Not Active | Not Active | Not Active | – | – | – | – | – | –
CC(C)c1c(C(=O)Nc2ccccc2)c(-c2ccccc2)c(-c2ccc(F)cc2)n1CC[C@@H](O)C[C@@H](O)CC(=O)O [ATORVASTATIN] | Not Active | Not Active | – | – | Not Active | Not Active | Not Active | Not Active | Not Active | – | – | – | – | – | –
CC(=O)OC[C@H]1O[C@@H](n2ncc(=O)[nH]c2=O)[C@H](OC(C)=O)[C@@H]1OC(C)=O [AZARIBINE] | Not Active | Not Active | – | – | Not Active | Not Active | Not Active | Not Active | Not Active | – | – | – | – | – | –
C[C@H]1[C@H](NC(=O)/C(=N\OC(C)(C)C(=O)O)c2csc(N)n2)C(=O)N1S(=O)(=O)O [AZTREONAM] | Not Active | Not Active | – | – | Not Active | Not Active | Not Active | Not Active | Not Active | – | – | – | – | – | –
O=C(O)CCNC(=O)c1ccc(/N=N/c2ccc(O)c(C(=O)O)c2)cc1 [BALSALAZIDE] | Not Active | Not Active | – | – | Not Active | Not Active | Not Active | Not Active | Not Active | – | – | – | – | – | –
COc1cc(OC)c(C(=O)CCCN2CCCC2)c(OC)c1 [BUFLOMEDIL] | Not Active | Not Active | – | – | Not Active | Not Active | Not Active | Not Active | Not Active | – | – | – | – | – | –
Cn1c(=O)c2c(ncn2C)n(C)c1=O [CAFFEINE] | Not Active | Not Active | – | – | Not Active | Not Active | Not Active | Not Active | Not Active | – | – | – | – | – | –
ClC(Cl)(Cl)Cl [CARBON TETRACHLORIDE] | Not Active | Not Active | – | – | Not Active | Not Active | Not Active | Not Active | Not Active | – | – | – | – | – | –
CO/N=C(\C(=O)N[C@@H]1C(=O)N2C(C(=O)O)=C(COC(C)=O)CS[C@H]12)c1csc(N)n1 [CEFOTAXIME] | Not Active | Not Active | – | – | Not Active | Not Active | Not Active | Not Active | Not Active | – | – | – | – | – | –
CNC1=Nc2ccc(Cl)cc2C(c2ccccc2)=[N+]([O-])C1 [CHLORDIAZEPOXIDE] | Not Active | Not Active | – | – | Not Active | Not Active | Not Active | Not Active | Not Active | – | – | – | – | – | –
